Data set [1] addresses T1, amyloid β (1-40) aggregates formed in PBS and in MES (Homo sapiens, UniProt P05067).
T1 construct: amyloid β (1-40) peptide hydrochloric acid salt; host or cells: chemically synthesised peptide
As to the kind of experiment: Correlation of β sheet amount in aggregates to binding amount of compound 23. To be noted: mixtures of PBS aggregates and MES aggregates (FIG. 4). The source says: In order to confirm that binding of compound 23 is promoted in accordance with the β-sheet structure amount, binding amount was compared among amyloid β aggregates having different β-sheet contents.
It has already reported by Wood et al. that amyloid β (1-40) aggregated in an acidic medium assumes large aggregates having a small β-sheet structure content, and that the structure is unchanged even in a neutral pH medium (Wood S. J., J. Mol. Biol. 256(5): 870-877). According to this report, synthetic amyloid β (1-40) aggregates were prepared in PBS in a manner similar to that of Test Example 2, and such aggregates were also prepared in MES (2-morpholinoethansulfonate) buffer in a similar manner.
These samples were further diluted with PBS to 40 μmol/L. Also a PBS aggregates sample and a MES aggregates sample were diluted with PBS to 40 μmol/L respectively.
The β-sheet content of aggregate mixture samples was determined through the thioflavin T method.
The binding amount of compound 23 to an aggregate mixture (aggregates formed in PBS and those formed in MES) was determined in a manner similar to that of Test Example 5 (binding to amyloid).

In data set [2] the target is Whole protein of human Alzheimer lesion origin (temporal cortex) (Homo sapiens, UniProt P05067). As to the kind of experiment: Calculation of binding affinity by use of Alzheimer brain. To be noted: Alzheimer brain homogenate. As for the experimental part: Whole protein of human Alzheimer lesion origin (temporal cortex), a commercial product of Biochain (US), was employed.
Sequence of Whole protein of human Alzheimer lesion origin (temporal cortex) (P05067 672-713): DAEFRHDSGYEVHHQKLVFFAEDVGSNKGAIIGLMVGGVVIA
An Alzheimer brain homogenate diluted with PBS was added to each test tube, to thereby initiate reaction.
4.00 (GraphPad Software, Inc.), to thereby calculate binding parameters (Kd, Bmax).

Data set [3] in a line: Distribution in rat body (radioactivity in the brain). To be noted: caudal vein. The class given is in vivo, Wistar male rats. How it is done: Wistar male rats (purchased from Japan SLC, Inc.) were conditioned for seven days, maintaining water and chow (commercial solid chow: F-2, product of Funabashi Farm) ad libitum, and the non-fasting rats were employed in the experiment (8-week-old at experiment).
Each of compound 23, compound 24, and [^125I]-IMPY was dissolved in a solution containing 40 mM ascorbic acid and 0.1% Tween80, to thereby adjust the concentration to 100 μCi/200 μL. Each sample was administered to each rat through the caudal vein under non-anesthetization. […] The brain was cut into the left and right parts, and each part was weighed. The right brain was placed in a vial, and radioactivity was measured by means of a gamma counter. The radioactivity relative to the administration amount was calculated. Specifically, radioactivity of the tissue and that divided by the tissue weight were calculated as % I.D. and % I.D./g-tissue weight, respectively.

Data set [4] is described as follows: In vitro metabolism rate by use of liver microsomes, mouse. The class given is in vitro ADME, Male CD1 mouse. How it is done: (§1) Liver microsomes (Pooled human Liver Microsomes, Male CD1 mouse, Male Wistar Rat), which is a commercial product of In Vitro Technologies, were employed.
(§2) Each of compound 23, compound 24, and [^125I]-IMPY was dissolved in Milli Q water, to thereby adjust the concentration to 11 μCi/mL (5 nmol/L).
(§3) To a mixture of 100 mM glucose 6-phosphate and […] NADPH solution, an equal volume of […] magnesium chloride was added. Glucose 6-phosphate dehydrogenase was employed at a final concentration of 10 unit/mL. These components were reconstituted upon use.
(§4) Method: To each of the glass test tubes, […] EDTA/0.33M potassium phosphate buffer (150 μL), Milli Q water (200 μL), 0.005 or 0.5 mg protein/mL microsome suspension (50 μL), and a test substance solution (50 μL) were added. The mixture was preliminarily incubated at 37° C. for two minutes. The above-prepared NADPH-generating system (50 μL) was added, to thereby initiate reaction. At an arbitrary point of time, an equal volume of acetonitrile was added, to thereby terminate the reaction. The reaction mixture (50 μL) was sampled into a glass tube for determining the metabolism amount, and saturated ascorbic acid ethanol solution (25 μL) was added thereto. The sample was developed by means of a reverse phase TLC (Whatman KC18F) with 80% methanol. The TLC was brought into contact with an imaging plate, and radioactivity was detected by means of BAS-1800 (product of Fuji Film Co., Ltd.). The metabolism rate was calculated through analysis by means of GraphPad Prism Ver. 4.00 (GraphPad Software, Inc.).
Background: Liver microsomes are vesicles of endoplasmic reticulum, rich in cytochrome P450 enzymes.

Data set [5] is described as follows: In vitro metabolism rate by use of liver microsomes, rat. The class given is in vitro ADME, Male Wistar Rat. How it is done:
as §1, §2, §3, §4

Data set [6] in a line: In vitro metabolism rate by use of liver microsomes, human. Type of data set: in vitro ADME. As for the experimental part:
as §1, §2, §3, §4

Data set [7] is described as follows: Analysis of radioactive substance in the rat brain after administration (TLC). To be noted: rat brain homogenate 2 to 120 minutes after administration (FIG. 5). The class given is in vivo. How it is done:
Compounds which had been incorporated into the rat brain were investigated. The left part of the rat brain, obtained in the above experiment (distribution in the rat body) was homogenized by means of a Potter-type homogenizer with 40-mmol/L ascorbic acid-containing PBS (4-fold amount by mass). Acetonitrile (4-fold volume with respect to homogenate) was added to the homogenate, and the mixture was filtered, to thereby remove protein. The acetonitrile layer was developed by means of a reverse phase TLC (Whatman KC18F). The TLC was brought into contact with an imaging plate, and radioactivity was detected by means of BAS-1800 (product of Fuji Film Co., Ltd.). Each of the brain homogenate obtained 2, 5, 40, 60, and 120 minutes after administration was treated with acetonitrile so as to remove protein, and extracted radioactive substances were analyzed through thin-layer chromatography (KC18F, Whatman).

T1 sequence (P05067 672-711 limits assumed): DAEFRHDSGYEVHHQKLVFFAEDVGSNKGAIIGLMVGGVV

As to `[125I]c1ccc2nc(-c3ccc(-c4cnco4)cc3)cn2c1` [Example 23, [^125I]5-[4-(6-Iodoimidazo[1,2-a]pyridin-2-yl)phenyl]-1,3-oxazole], in data set [1], the “Specific binding amount against β-sheet content of aggregate mixture” value is on record as “promoted in accordance with an increase in β-sheet content”. Also, the Bmax in data set [2] is on record as 1.66 pmol/mg protein. Moreover, the “Radioactivity in the rat brain Mean ± SD” value is recorded as 1.268 ± 0.166 % I.D./g in data set [3] (2 min after administration); 1.124 ± 0.032 % I.D./g in data set [3] (5 min after administration); 0.584 ± 0.077 % I.D./g in data set [3] (15 min after administration); 0.273 ± 0.015 % I.D./g in data set [3] (30 min after administration); 0.139 ± 0.006 % I.D./g in data set [3] (60 min after administration); 0.083 ± 0.002 % I.D./g in data set [3] (120 min after administration). In addition, the “Rate of metabolism by liver microsomes” value came to 0.480 ± 0.139 pmol/min/mg protein in data set [4], 0.632 ± 0.420 pmol/min/mg protein in data set [5] and 0.944 ± 0.265 pmol/min/mg protein in data set [6].
Take `CN(C)c1ccc(-c2cn3cc([125I])ccc3n2)cc1` [^125I-IMPY, reference compound]: the “Radioactivity in the rat brain Mean ± SD” value was 1.110 ± 0.027 % I.D./g in data set [3] (2 min after administration); 0.713 ± 0.098 % I.D./g in data set [3] (5 min after administration); 0.337 ± 0.019 % I.D./g in data set [3] (15 min after administration); 0.144 ± 0.021 % I.D./g in data set [3] (30 min after administration); 0.065 ± 0.002 % I.D./g in data set [3] (60 min after administration); 0.027 ± 0.001 % I.D./g in data set [3] (120 min after administration). In addition, the “Metabolites in the brain (TLC of extracted radioactive substance)” value in data set [7] is “provided a plurality of metabolites in the brain”. The “Rate of metabolism by liver microsomes” value in data set [4] was determined as 0.911 ± 0.331 pmol/min/mg protein; in data set [5], 2.164 ± 0.647 pmol/min/mg protein; in data set [6], 0.510 ± 0.137 pmol/min/mg protein.

(Values after patent US8022075B2, “Diagnostic and remedy for disease caused by amyloid aggregation and/or deposition” (Fujifilm Ri Pharma Co., Ltd., priority 2005, dated 2011).)
